Test results reported in article PMC9867837 (Cancer letters, 2022).

Assays:
CYP2D6 = molecular target: T1, CYP2D6 (Homo sapiens, UniProt P10635); assay: CYP inhibition, CYP2D6; assay type: in vitro ADME; conditions: read-out: CYP Inhibition CYP2D6 % Inh at 10 μM
T1 construct: Eurofins-CEREP (contract research organisation that ran the assay)
Description: The in vivo activity of a compound is influenced by its overall bioavailability, which is also driven by parameters, such as solubility, permeability, and metabolism. […] These values are all above the industry cut-off of 60 μg/ml. […] It has CLint in human hepatocytes of 16 μL/min/10^6 cells, which falls into moderate stability range [43].

[1] = system: c-Myc, survivin and vascular endothelial growth factor (VEGF); assay: Immunoblotting for Stat3 downstream genes in cells; assay type: cell-based, human; conditions: MDA-MB-231, doses that inhibit Stat3 activity
Description: These studies were performed as previously described. Details are presented in Supplementary Information, “Methods”.
Aberrantly-active Stat3 promotes tumor cell growth and proliferation, survival, migration, invasion, and metastasis.
These studies were performed as previously described [1 -3] . Briefly, snap-frozen tumor tissues or cultured cells treated or not were harvested and whole-cell or tissue lysates were prepared in radioimmunoprecipitation assay (RIPA) buffer. Samples of equal total protein were subjected to SDS - PAGE and immunoblotting analysis. Primary antibodies used were anti- Stat3, pY705-Stat3, pS727Stat3, […]
Akt, pT202/Y204Erk1/2 (p44/42), Erk1/2, PARP , caspase 3, c-Myc, survivin, VEGF, β-actin, α/β-tubulin, and GAPDH. For the studies of the effects of cell density and confluence on pY705Stat3, cells were seeded […] in culture dishes. The next day, cells were untreated (DMSO control, […]
0.1%) or treated at the same time with 1 or 2 µM H182, allowed to incubate for the indicated time and then harvested for whole-cell lysate preparation and SDS -PAGE / immunoblotting analy sis. […]
concentration of H182 for 6 h and then treated with 0- 100 nM docetaxel or 0-20 µM cisplatin for a total of 72 h. Viable cell numbers were assessed by a CyQuant cell proliferation kit according to the manufacturer’s instructions (Thermo/Life Technologies Corp, Carlsbad, CA). […]

pYStat3C542S = molecular target: T2, pYStat3C542S (Homo sapiens, UniProt P40763, C542S); assay: EMSA with purified mutant pYStat3C542S; assay type: biochemical; conditions: 3 μM H182, 30 min
T2 construct: made in house; host or cells: E. coli BL21(DE3) TKB1 (inducible tyrosine kinase)
From the text: This construct was used to generate the mutants, Stat3C328A, Stat3C426A, Stat3C468A, and Stat3C542S, as described in detail in Supplementary Information “Methods”.
The expression of un-phosphorylated and tyrosine phosphorylated His-tagged recombinant wtStat3 and mutant Stat3 proteins in BL21 (DE3) bacterial cells is described in detail in Supplementary Information “Methods”.
Given the MS data, we conducted site-directed mutagenesis analysis for the effects of Cys mutations (Cys-to-Ala or Cys-to-Ser mutations) on the inhibitory activities or potencies of the compounds. […]
In another case, the nuclear extract was pre-incubated with the radiolabeled probe for 30 min at 30 °C prior to incubation with increasing concentration of H182 at room temperature for 30 min and subjecting to EMSA analysis. Bands corresponding to Stats DNA- binding activities were scanned and quantified using ImageJ and plotted as a percentage of control (vehicle) against the concentration of the inhibitor, from which the IC50 values were derived . […]
These studies were performed as previously reported using the v-Src -transformed NIH3T3/v-Src fibroblasts [1 -5] . […] Luciferase activity was normalized to total protein concentration of cell lysate, which was determined by Bradford assay (Bio-Rad, Hercules, CA) . […]

[2] = molecular target: T3, Stat1:Stat3 DNA-binding activity (Mus musculus, UniProt P42227); assay: EMSA of Stat1:Stat3 DNA-binding activity in nuclear extracts of EGF-stimulated NIH3T3/hEGFR; assay type: biochemical; conditions: Fig. 1C, hSIE probe, 30 min
T3 construct: endogenous in cells; host or cells: EGF-stimulated NIH3T3/hEGFR fibroblasts (nuclear extract)
Description: Details are presented in Supplementary Information, “Methods”. […]
min, prior to incubation with the radiolabeled probe for 30 min at 30 °C and subjecting to EMSA analysis.
In another case, the nuclear extract was pre-incubated with the radiolabeled probe for 30 min at 30 °C prior to incubation with increasing concentration of H182 at room temperature for 30 min and subjecting to EMSA analysis. Bands corresponding to Stats DNA- binding activities were scanned and quantified using ImageJ and plotted as a percentage of control (vehicle) against the concentration of the inhibitor, from which the IC50 values were derived .

T3 sequence (P42227 2-770 limits assumed): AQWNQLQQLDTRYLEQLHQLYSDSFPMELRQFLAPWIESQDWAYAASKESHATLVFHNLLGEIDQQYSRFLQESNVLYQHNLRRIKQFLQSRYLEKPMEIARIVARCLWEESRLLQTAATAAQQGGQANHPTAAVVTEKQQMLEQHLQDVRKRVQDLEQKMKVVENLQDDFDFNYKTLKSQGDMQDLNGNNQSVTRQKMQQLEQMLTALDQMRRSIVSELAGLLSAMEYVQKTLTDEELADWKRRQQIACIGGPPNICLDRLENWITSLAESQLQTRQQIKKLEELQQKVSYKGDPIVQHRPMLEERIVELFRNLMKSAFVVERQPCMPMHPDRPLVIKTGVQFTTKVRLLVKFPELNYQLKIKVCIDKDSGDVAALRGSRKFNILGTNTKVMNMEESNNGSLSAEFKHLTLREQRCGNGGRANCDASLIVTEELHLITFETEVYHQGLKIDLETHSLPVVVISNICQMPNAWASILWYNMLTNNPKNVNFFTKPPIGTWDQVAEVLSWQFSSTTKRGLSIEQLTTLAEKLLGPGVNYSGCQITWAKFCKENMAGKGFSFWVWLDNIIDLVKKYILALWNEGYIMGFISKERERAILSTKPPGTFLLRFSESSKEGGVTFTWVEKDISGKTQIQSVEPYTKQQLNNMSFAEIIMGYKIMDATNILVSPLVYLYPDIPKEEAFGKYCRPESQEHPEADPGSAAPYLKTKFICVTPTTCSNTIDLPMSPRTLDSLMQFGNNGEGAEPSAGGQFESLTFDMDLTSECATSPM
T3 sequence (P42225 2-749 partner limits assumed): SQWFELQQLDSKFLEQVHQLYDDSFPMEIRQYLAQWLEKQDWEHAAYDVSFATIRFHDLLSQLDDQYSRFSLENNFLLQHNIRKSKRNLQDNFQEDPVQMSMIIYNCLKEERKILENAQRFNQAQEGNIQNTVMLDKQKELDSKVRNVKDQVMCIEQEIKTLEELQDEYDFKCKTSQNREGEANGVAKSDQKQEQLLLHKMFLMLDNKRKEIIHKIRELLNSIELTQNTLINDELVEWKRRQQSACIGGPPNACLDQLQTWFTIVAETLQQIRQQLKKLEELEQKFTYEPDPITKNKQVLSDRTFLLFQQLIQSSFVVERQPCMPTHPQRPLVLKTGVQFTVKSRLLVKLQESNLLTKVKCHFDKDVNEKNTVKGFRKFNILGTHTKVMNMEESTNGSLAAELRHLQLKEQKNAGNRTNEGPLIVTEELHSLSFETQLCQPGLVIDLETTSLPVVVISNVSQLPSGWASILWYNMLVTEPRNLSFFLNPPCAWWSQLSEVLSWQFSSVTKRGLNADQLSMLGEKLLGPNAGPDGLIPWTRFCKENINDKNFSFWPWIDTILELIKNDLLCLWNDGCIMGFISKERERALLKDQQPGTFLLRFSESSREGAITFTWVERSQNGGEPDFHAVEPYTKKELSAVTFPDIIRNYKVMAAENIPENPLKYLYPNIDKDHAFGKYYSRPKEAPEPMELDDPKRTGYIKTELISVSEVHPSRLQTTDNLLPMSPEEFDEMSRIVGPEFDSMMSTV
T1 sequence (P10635 whole entry, species assumed): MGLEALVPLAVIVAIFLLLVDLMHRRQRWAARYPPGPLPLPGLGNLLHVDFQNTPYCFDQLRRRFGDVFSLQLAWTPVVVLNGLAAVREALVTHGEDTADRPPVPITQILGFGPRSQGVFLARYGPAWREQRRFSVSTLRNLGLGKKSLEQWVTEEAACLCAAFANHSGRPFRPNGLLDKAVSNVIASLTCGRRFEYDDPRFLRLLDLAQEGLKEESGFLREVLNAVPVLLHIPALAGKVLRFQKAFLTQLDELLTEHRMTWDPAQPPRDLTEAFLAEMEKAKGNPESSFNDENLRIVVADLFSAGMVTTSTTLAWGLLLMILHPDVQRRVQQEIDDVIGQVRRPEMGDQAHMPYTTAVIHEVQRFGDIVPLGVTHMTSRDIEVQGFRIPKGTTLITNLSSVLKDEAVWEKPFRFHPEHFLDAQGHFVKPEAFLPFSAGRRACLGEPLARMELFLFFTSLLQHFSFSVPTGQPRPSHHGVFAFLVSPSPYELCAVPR
T2 sequence (P40763 127-711 C542S): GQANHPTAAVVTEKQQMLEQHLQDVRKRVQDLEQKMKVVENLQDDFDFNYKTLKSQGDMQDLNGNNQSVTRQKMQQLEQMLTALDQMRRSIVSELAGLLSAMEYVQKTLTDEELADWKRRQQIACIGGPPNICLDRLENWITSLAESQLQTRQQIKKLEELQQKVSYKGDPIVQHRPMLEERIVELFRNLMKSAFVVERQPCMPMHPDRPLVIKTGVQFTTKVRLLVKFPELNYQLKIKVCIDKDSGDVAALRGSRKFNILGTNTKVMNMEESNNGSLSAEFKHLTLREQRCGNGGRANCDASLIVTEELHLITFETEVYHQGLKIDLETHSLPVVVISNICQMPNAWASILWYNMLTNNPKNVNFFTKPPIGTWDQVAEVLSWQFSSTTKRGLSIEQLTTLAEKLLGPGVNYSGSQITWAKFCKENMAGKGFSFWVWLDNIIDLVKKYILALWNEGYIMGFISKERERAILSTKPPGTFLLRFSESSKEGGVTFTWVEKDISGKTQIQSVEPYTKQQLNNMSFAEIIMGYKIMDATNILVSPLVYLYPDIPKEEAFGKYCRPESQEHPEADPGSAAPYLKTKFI

Structure (SMILES): O=C([C@H]1CCN1S(=O)(=O)c1c(F)c(F)c(F)c(F)c1F)N(Cc1ccc(C2CCCCC2)cn1)c1ccc2c(=O)[nH]ncc2c1 [Compound H182]
- inhibition at 10 µM (CYP2D6): 9%
- Expression of c-Myc, survivin and VEGF in cells [1]: rapidly suppressed
- Effect on DNA-binding activity of pYStat3C542S (pYStat3C542S): strong inhibition
- IC50 [2]: 3.4 µM
